Measured values from US20160250142A1, “INHALED AEROSOLIZED IMMUNO-CHEMOTHERAPY FOR THE TREATEMENT OF MDR TB” (priority 2013, published 2016).
“And” between values parts separate entries of the source, which are not always exact repeats. Equal values may be shown once. Read-outs that look alike come from different tables or passages of the source.

B1: Actimmune: Actimmune® (IFN-γ; Interferon gamma-1b), 100 μg/0.5 mL vial diluted 1:1400 (protein, UniProt P01579 24-161, looked up)
Interferon gamma: QDPYVKEAENLKKYFNAGHSDVADNGTLFLGILKNWKEESDRKIMQSQIVSFYFKLFKNFKDDQSIQKSVETIKEDMNVKFFNSNKKKRDDFEKLTNYSVTDLNVQRKAIHELIQVMAELSPAAKTGKRKRSQMLFRG

Legend:
[1] = NGI impactor test of nebulized respiratory solutions (aerosol particle size); type: physicochemical; conditions: fractions by HPLC
Description: FIG. 1. Graphical representation of the NGI impactor test for Metronidazole respiratory solution (8 mg/mL).
FIG. 2. Graphical representation of the NGI impactor test for Amikacin respiratory solution (200 mg/mL).
FIG. 3. Graphical representation of the NGI impactor test for Levofloxacin respiratory solution (250 mg/mL).
The nebulization drug formulations were nebulized and passed through an NGI impactor (Westech Corporation). These experiments show the fraction of drug in various stages of the impactor (FIGS. 1-3). It was shown that significant amounts of the drug compounds were obtained at the different stages, which corresponds to the respirable fraction that would be deposited in the lungs. The drug fractions were analyzed by HPLC.

[2] = Plasma and lung drug levels in mice after MicroSprayer endotracheal delivery (LC/MS/MS); conditions: for Lung Levels: 8 hour (Range): Table 14 summary, dose delivered 240/150/50 μg in 100 μL; for concentration at 1 h / concentration at 8 h: female, C57BL/6, mouse; for Lung levels compared to plasma levels / Plasma and lung levels 8 hours post dose compared to 1 hour post dose: endotracheal delivery
Description: Observations were taken at 1 and 8 hour time points within lung tissue as well as the plasma of individual animals.
For microsprayer dosing via endotracheal administration, mice were anesthetized by Ketamine/Xylazine (K/X) sedation (50 mg/kg Ketamine and 5 mg/kg Xylazine) administered intraperitoneally (IP). […] A Bair Hugger warm air unit was used to keep animals warm during recovery from K/X anesthesia (i.e. after dosing).
On Day 0, mice were endotracheally intubated with a MicroSprayer® Aerosolizer (Penn-Century™, Inc.; Wyndmoor, Pa.) and test articles were delivered in the airways at a dose volume of 100 μL/dose at various dose levels.
Animals were used for collection of blood samples and the entire lung for plasma and drug level determinations. Each mouse was anesthetized with CO2/O2 and terminally bled via retro-orbital into tubes containing K2EDTA. Upon collection each blood sample was mixed by gentle inversion, placed on ice, and subsequently centrifuged to separate plasma. Plasma samples were processed on the day they were collected, or were snap frozen using liquid nitrogen and stored frozen (at or below −70° C.) until analyzed.
Animals in Subgroup A were used for collection of blood samples for plasma drug level determinations at the 1 hour post dose time point following Day 0 dosing; samples were collected within ±3% of target time. Animals in Subgroup B were used for collection of blood samples for plasma drug level determinations at the 8 hour post dose time point following Day 0 dosing; samples were collected within ±3% of target time (Table 8).
Immediately following each subgroups blood collection time point, each animal was euthanized using CO2 and the entire lung was collected for tissue drug level determinations (within 15 minutes after the blood sample), weighed, and snap-frozen. Lung samples were snap frozen using liquid nitrogen or dry ice and stored frozen (at or below −70° C.) until analyzed. […] Animals in Groups 1-3 had aerosol content (ng/mL), plasma content (ng/mL) and lung level (ng/g) assessed for parent using an appropriate LC/MS/MS method.

[3] = tested on: TB (Mycobacterium tuberculosis); conditions: reported for reference only; metronidazole MIC not established for TB; cited from earlier work
[4] = type: in vivo, female C57BL/6 mice; conditions: number of animals
Description: Detailed observations were recorded prior to dosing and prior to euthanasia.
All animals survived to their scheduled euthanasia time point on Day 0 (1 hour or 8 hours post dosing). All animals were normal (no clinical abnormalities) prior to dosing on Day 0 and prior to euthanasia 1 hour or 8 hours post dosing.

[5] = Human IFN-γ levels in mouse lung and plasma after aerosol delivery (ELISA); type: in vivo, female C57BL/6 mice; conditions: for IFN-g Level in mouse plasma: plasma diluted 1:2, ELISA sensitivity <2 pg/mL; for IFN-g Level in lung homogenate: mouse lung homogenized in 10 mL buffer; for IFN-g Level in lung homogenate / ng of IFN-g per gm of tissue: individual animals; for ng of IFN-g per gm of tissue / ng of IFN-g per gm of tissue, Mean: mouse lung; for ng of IFN-g per gm of tissue, Mean: mean of 3
Description: Actimmune® (IFN-γ; Interferon gamma-1b) was diluted in the dilution solution excipient as per manufacturer's directions. The contents of one (1) vial (100 μg/0.5 mL) were gently diluted to a final volume of 700 mL using the dilution solution excipient. This represented a 1:1400 dilution. Test articles A-C were supplied in a ready to use form and no additional formulations were required. All residual test articles were stored at room temperature (15-30° C.) or refrigerated (2-8° C.).

[6] = lung, Lung Concentration (μg/g) of Tissue, mice, IT, 1 hr, individual animals
[7] = lung, Lung Concentration, mice, IT, 1 hr, individual animals
[8] = lung, Lung levels 1 hour post dose (range), mice, endotracheal MicroSprayer, Subgroup A
[9] = plasma, Plasma Concentration, mice, IT, 1 hr, individual animals, nominal dose 0.48/0.3/0.1 mg/animal (delivered about 50%)
[10] = plasma, Plasma Concentration, mice, IT, 8 hr, individual animals, nominal dose 0.48/0.3/0.1 mg/animal
[11] = plasma, Plasma levels 1 hour post dose (range), mice, endotracheal MicroSprayer, Subgroup A, 3 animals
[12] = plasma, Plasma levels 8 hour post dose (range), mice, endotracheal MicroSprayer, Subgroup B, 3 animals
[13] = mice, IT, 1 hr, individual animals
[14] = mice, IT, 1 hr, individual animals, nominal dose 0.48/0.3/0.1 mg/animal (delivered about 50%)
[15] = mice, IT, 8 hr, individual animals
[16] = mice, IT, 8 hr, individual animals, nominal dose 0.48/0.3/0.1 mg/animal
[17] = mice, endotracheal MicroSprayer, Subgroup B, 3 animals
[18] = lung, Lung levels 8 hour post dose (range), mice, endotracheal MicroSprayer, Subgroup B

| Molecule | Droplets produced on nebulization [1] | Lung Levels: 8 hour (Range) [2] | concentration at 1 h [2, 6] [ng/g] | concentration at 1 h [2, 7] [ng/g] | concentration at 1 h [2, 8] [ng/g] | concentration at 1 h [2, 9] [ng/mL] | concentration at 8 h [2, 10] [ng/mL] | concentration at 1 h [2, 11] [ng/mL] | concentration at 8 h [2, 12] [ng/mL] | Lung Concentration [2, 13] | Lung Concentration (μg/g) of Tissue [2, 13] | Plasma Concentration [2, 14] | Lung Concentration [2, 15] | Plasma Concentration [2, 16] | Lung levels compared to plasma levels ([2]; mice) | Plasma and lung levels 8 hours post dose compared to 1 hour post dose ([2]; mice) | ANIMALS ALIVE ([4]; Day 0, 1 hr post dose) | ANIMALS NORMAL ([4]; Day 0, 1 hr post dose) | ANIMALS ALIVE ([4]; Day 0, 8 hr post dose) | ANIMALS NORMAL ([4]; Day 0, 8 hr post dose) | further results |
| --- | --- | --- | --- | --- | --- | --- | --- | --- | --- | --- | --- | --- | --- | --- | --- | --- | --- | --- | --- | --- | --- |
| Cc1ncc([N+](=O)[O-])n1CCO [Metronidazole] | droplets in the respirable range | Not detected | 11700 | 1640 | 1070 to 1640 | 2290 | 42.3 | 1670 to 2290 | 42.3 | 1070 ng/g and 1270 ng/g | 6.50 µg/g and 8.27 µg/g | 1670 ng/mL and 1880 ng/mL | BQL | BQL | increased | decreased | 6 | 3 | 3 | 3 | Lung levels 8 hour post dose (range) ([2]; mice, endotracheal MicroSprayer, Subgroup B): not detectable; Plasma levels 8 hour post dose (range) [2, 17]: 42.3 ng/mL -; Reported MIC [3]: 250 μg/mL in (250,000 ng/mL) |
| NCC[C@H](O)C(=O)N[C@@H]1C[C@H](N)[C@@H](O[C@H]2O[C@H](CN)[C@@H](O)[C@H](O)[C@H]2O)[C@H](O)[C@H]1O[C@H]1O[C@H](CO)[C@@H](O)[C@H](N)[C@H]1O [Amikacin] | droplets in the respirable range |  |  |  | 3990 to 9480 |  |  | 2300 to 7140 | 152 to 406 | 4830 ng/g and 9480 ng/g and 3990 ng/g | 33.6 µg/g and 64.9 µg/g and 27.0 µg/g | 7140 ng/mL and 4820 ng/mL and 2300 ng/mL | 3060 ng/g and 443 ng/g and 351 ng/g | 406 ng/mL and 156 ng/mL and 152 ng/mL | higher | decreased | 6 | 3 | 3 | 3 | concentration at 8 h [2, 18]: 351 to 3060 ng/g; Lung Concentration (μg/g) of Tissue [2, 15]: 19.0 µg/g and 3.05 µg/g and 1.99 µg/g; Reported MIC [3]: 0.5 μg/mL (500 ng/mL) |
| C[C@H]1COc2c(N3CCN(C)CC3)c(F)cc3c(=O)c(C(=O)O)cn1c23 [Levofloxacin] |  | 7590 ng/g - ng/g of lung tissue | 13800 | 2140 | 1610 to 2270 | 556 | 53 | 534 to 815 | 53 | 2270 ng/g and 1610 ng/g | 16.9 µg/g and 10.4 µg/g | 815 ng/mL and 534 ng/mL | BQL | BQL | increased | decreased | 6 | 3 | 3 | 3 | concentration at 8 h ([2]; lung, Lung Concentration (μg/g) of Tissue, mice, IT, 8 hr, individual animals): 7560 ng/g; concentration at 8 h ([2]; lung, Lung Concentration, mice, IT, 8 hr, individual animals): 1200 ng/g; concentration at 8 h [2, 18]: 1200 ng/g; Plasma levels 8 hour post dose (range) [2, 17]: 53.0 ng/mL; Plasma levels 8 hour post dose (range) ([2]; mice, endotracheal MicroSprayer, Subgroup B, 3 animals, listed as LEVOFLOXACIN): 53 ng/mL - |
| B1 |  |  |  |  |  |  |  |  |  |  |  |  |  |  |  |  | 6 | 3 | 3 | 3 | IFN-g Level in mouse plasma ([5]; 1 hr post dose): not detectable and below detectable levels (BDL) and BDL^a and BDL; IFN-g Level in mouse plasma ([5]; 1 hr post dose, listed as INTERFERON-gamma): Not Detectable; IFN-g Level in mouse plasma ([5]; 8 hr post dose): not detectable and below detectable levels (BDL) and BDL; IFN-g Level in mouse plasma ([5]; 8 hr post dose, listed as INTERFERON-gamma): Not Detectable; Plasma and lung levels 8 hours post dose compared to 1 hour post dose ([5]; mice, endotracheal delivery): decreased; IFN-g Level in lung homogenate ([5]; 1 hr post dose): 1732.7 pg/mL and 1248.4 pg/mL and 1109.4 pg/mL; IFN-g Level in lung homogenate ([5]; 8 hr post dose): 1006.2 pg/mL and 1578.0 pg/mL and 1307.7 pg/mL; ng of IFN-g per gm of tissue ([5]; 1 hr post dose): 116.8 ng per gm of tissue and 87.9 ng per gm of tissue and 75.4 ng per gm of tissue; ng of IFN-g per gm of tissue, Mean ([5]; 1 hr post dose): 93.3 ng per gm of tissue; ng of IFN-g per gm of tissue ([5]; 8 hr post dose): 58.3 ng per gm of tissue and 72.2 ng per gm of tissue and 102.6 ng per gm of tissue; ng of IFN-g per gm of tissue, Mean ([5]; 8 hr post dose): 77.7 ng per gm of tissue |
